# Laboratory results reported in patent US6737383B1, “Herbicidal oxadiazolidines” (priority 1999, dated 2004).
# Columns and labels:
# wheat = experiment: Test B pre/postemergence wheat; format: in vivo, Triticum aestivum
# How it was run: (§1)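 Herbicidal effect was estimated by eye on a ten-point control scale after plants spent twelve to sixteen days in a greenhouse following soil or foliar treatment. Foliar sprays targeted plants at one to four leaves; all doses were formulated in a non-phytotoxic solvent with surfactant.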
# blackgrass = experiment: Test B pre/postemergence blackgrass; format: in vivo, Alopecurus myosuroides
# How it was run: as §1
# smallflower flatsedge = experiment: Test B flood test smallflower flatsedge; format: in vivo, Cyperus difformis
# How it was run: (§2)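 Read-out is a visual response score from 0 (no effect) to 10 (complete control), assigned by comparison with untreated controls. Treatment was applied at the 2-leaf stage, and plants stayed in the greenhouse for twelve to sixteen days before scoring.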
# rape = experiment: Test B pre/postemergence rape; format: in vivo, Brassica napus
# How it was run: as §1
# sugar beet = experiment: Test B pre/postemergence sugar beet; format: in vivo, Beta vulgaris
# How it was run: as §1
# wild oat = experiment: Test B pre/postemergence wild oat; format: in vivo, Avena fatua
# How it was run: as §1
# purple nutsedge = experiment: Test B pre/postemergence purple nutsedge; format: in vivo, Cyperus rotundus
# How it was run: as §1
# rice = experiment: Test B flood test rice; format: in vivo, Oryza sativa
# How it was run: as §2
# giant foxtail = experiment: Test B pre/postemergence giant foxtail; format: in vivo, Setaria faberii
# How it was run: as §1
# duck salad = experiment: Test B flood test duck salad; format: in vivo, Heteranthera limosa
# How it was run: as §2
# pigweed = experiment: Test B pre/postemergence pigweed; format: in vivo, Amaranthus retroflexus
# How it was run: as §1
# cocklebur = experiment: Test B pre/postemergence cocklebur; format: in vivo, Xanthium strumarium
# How it was run: as §1
# morningglory = experiment: Test B pre/postemergence morningglory; format: in vivo, Ipomoea hederacea
# How it was run: as §1
# bamyardgrass = experiment: Test B flood test barnyardgrass; format: in vivo, Echinochloa crus-galli
# How it was run: as §2
# velvetleaf = experiment: Test B pre/postemergence velvetleaf; format: in vivo, Abutilon theophrasti
# How it was run: as §1
# soybean = experiment: Test B pre/postemergence soybean; format: in vivo, Glycine max
# How it was run: as §1
# [1] = Postemergence, Rate 62 g/ha, scale 0 to 10, 0 is no effect, 10 is complete control
# [2] = Postemergence, Rate 250 g/ha, scale 0 to 10, 0 no effect, 10 complete control
# [3] = Preemergence, Rate 62 g/ha, scale 0 to 10 (0 no effect, 10 complete control)
# [4] = Preemergence, Rate 125 g/ha, scale 0 to 10 (0 no effect, 10 complete control)
# [5] = Preemergence, Rate 250 g/ha, scale of 0 to 10 where 0 is no effect and 10 is complete control
# [6] = Preemergence, Rate 500 g/ha, scale 0 (no effect) to 10 (complete control)
# [7] = Rate 125 g/ha, Postemergence, scale 0 to 10, 0 no effect, 10 complete control
# [8] = Rate 500 g/ha, Postemergence, scale 0 to 10, 0 no effect, 10 complete control
# [9] = Rate 125 g/ha, Postemergence section (flood test species), scale 0 to 10, 0 no effect, 10 complete control
# [10] = Rate 500 g/ha, listed under Postemergence (flood test species), scale 0 to 10, 0 no effect, 10 complete control
# [11] = flood test, listed under Postemergence, Rate 250 g/ha, scale 0 to 10, 0 no effect, 10 complete control
smiles,measurement,setting,value
COc1cccc(C)c1-n1c(=O)on(C(=O)N(c2ccc(F)cc2)C(C)C)c1=O [Compound 62],Wheat plant response rating,wheat; [1],0
same,Wheat plant response rating,wheat; [2],0
same,Wheat plant response rating,wheat; [3],0
same,"Plant response rating, Wheat",wheat; [4],0
same,"Plant response rating, Wheat",wheat; [5],0
same,Wheat plant response rating,wheat; [6],0
same,Wheat plant response rating,wheat; [7],0
same,Wheat plant response rating,wheat; [8],0
same,Blackgrass plant response rating,blackgrass; [1],0
same,Blackgrass plant response rating,blackgrass; [2],0
same,Blackgrass plant response rating,blackgrass; [3],0
same,"Plant response rating, Blackgrass",blackgrass; [4],0
same,"Plant response rating, Blackgrass",blackgrass; [5],2
same,Blackgrass plant response rating,blackgrass; [6],4
same,Blackgrass plant response rating,blackgrass; [7],0
same,Blackgrass plant response rating,blackgrass; [8],2
same,S. Flatsedge plant response rating,smallflower flatsedge; [1],0
same,S. Flatsedge plant response rating,smallflower flatsedge; [9],0
same,S. Flatsedge plant response rating,smallflower flatsedge; [10],0
same,S. Flatsedge plant response rating,smallflower flatsedge; [11],0
same,Rape plant response rating,rape; [1],0
same,Rape plant response rating,rape; [2],0
same,Rape plant response rating,rape; [3],0
same,"Plant response rating, Rape",rape; [4],0
same,"Plant response rating, Rape",rape; [5],0
same,Rape plant response rating,rape; [6],0
same,Rape plant response rating,rape; [7],0
same,Rape plant response rating,rape; [8],0
same,Sugarbeets plant response rating,sugar beet; [1],0
same,Sugarbeets plant response rating,sugar beet; [2],0
same,Sugarbeets plant response rating,sugar beet; [3],0
same,"Plant response rating, Sugarbeets",sugar beet; [4],0
same,"Plant response rating, Sugarbeets",sugar beet; [5],0
same,Sugarbeets plant response rating,sugar beet; [6],0
same,Sugarbeets plant response rating,sugar beet; [7],0
same,Sugarbeets plant response rating,sugar beet; [8],5
same,Wild oats plant response rating,wild oat; [1],0
same,Wild oats plant response rating,wild oat; [2],3
same,Wild oats plant response rating,wild oat; [3],0
same,"Plant response rating, Wild oats",wild oat; [4],0
same,"Plant response rating, Wild oats",wild oat; [5],0
same,Wild oats plant response rating,wild oat; [6],0
same,Wild oats plant response rating,wild oat; [7],0
same,Wild oats plant response rating,wild oat; [8],3
same,Nutsedge plant response rating,purple nutsedge; [1],0
same,Nutsedge plant response rating,purple nutsedge; [2],0
same,Nutsedge plant response rating,purple nutsedge; [3],0
same,"Plant response rating, Nutsedge",purple nutsedge; [4],0
same,"Plant response rating, Nutsedge",purple nutsedge; [5],0
same,Nutsedge plant response rating,purple nutsedge; [6],0
same,Nutsedge plant response rating,purple nutsedge; [7],0
same,Nutsedge plant response rating,purple nutsedge; [8],3
same,Rice plant response rating,rice; [1],0
same,Rice plant response rating,rice; [9],0
same,Rice plant response rating,rice; [10],0
same,Rice plant response rating,rice; [11],0
same,Giant foxtail plant response rating,giant foxtail; [1],0
same,Giant foxtail plant response rating,giant foxtail; [2],0
same,Giant foxtail plant response rating,giant foxtail; [3],5
same,"Plant response rating, Giant foxtail",giant foxtail; [4],5
same,"Plant response rating, Giant foxtail",giant foxtail; [5],9
same,Giant foxtail plant response rating,giant foxtail; [6],10
same,Giant foxtail plant response rating,giant foxtail; [7],0
same,Giant foxtail plant response rating,giant foxtail; [8],2
same,Ducksalad plant response rating,duck salad; [1],0
same,Ducksalad plant response rating,duck salad; [9],0
same,Ducksalad plant response rating,duck salad; [10],0
same,Ducksalad plant response rating,duck salad; [11],0
same,Redroot pigweed plant response rating,pigweed; [1],0
same,Redroot pigweed plant response rating,pigweed; [2],0
same,Redroot pigweed plant response rating,pigweed; [3],0
same,"Plant response rating, Redroot pigweed",pigweed; [4],0
same,"Plant response rating, Redroot pigweed",pigweed; [5],0
same,Redroot pigweed plant response rating,pigweed; [6],0
same,Redroot pigweed plant response rating,pigweed; [7],0
same,Redroot pigweed plant response rating,pigweed; [8],0
same,Cocklebur plant response rating,cocklebur; [1],0
same,Cocklebur plant response rating,cocklebur; [2],6
same,Cocklebur plant response rating,cocklebur; [3],0
same,"Plant response rating, Cocklebur",cocklebur; [5],0
same,Cocklebur plant response rating,cocklebur; [6],5
same,Cocklebur plant response rating,cocklebur; [7],4
same,Cocklebur plant response rating,cocklebur; [8],6
same,Morningglory plant response rating,morningglory; [1],2
same,Morningglory plant response rating,morningglory; [2],2
same,Morningglory plant response rating,morningglory; [3],0
same,"Plant response rating, Morningglory",morningglory; [4],0
same,"Plant response rating, Morningglory",morningglory; [5],0
same,Morningglory plant response rating,morningglory; [6],3
same,Morningglory plant response rating,morningglory; [7],2
same,Morningglory plant response rating,morningglory; [8],6
same,Barnyardgrass plant response rating,bamyardgrass; [1],0
same,Barnyardgrass plant response rating,bamyardgrass; [9],0
same,Barnyardgrass plant response rating,bamyardgrass; [10],0
same,Barnyardgrass plant response rating,bamyardgrass; [11],0
same,Velvetleaf plant response rating,velvetleaf; [1],0
same,Velvetleaf plant response rating,velvetleaf; [2],2
same,Velvetleaf plant response rating,velvetleaf; [3],0
same,"Plant response rating, Velvetleaf",velvetleaf; [4],0
same,"Plant response rating, Velvetleaf",velvetleaf; [5],0
same,Velvetleaf plant response rating,velvetleaf; [6],0
same,Velvetleaf plant response rating,velvetleaf; [7],0
same,Velvetleaf plant response rating,velvetleaf; [8],7
same,Soybean plant response rating,soybean; [1],1
same,Soybean plant response rating,soybean; [2],2
same,Soybean plant response rating,soybean; [3],0
same,"Plant response rating, Soybean",soybean; [4],0
same,"Plant response rating, Soybean",soybean; [5],0
same,Soybean plant response rating,soybean; [6],0
same,Soybean plant response rating,soybean; [7],1
same,Soybean plant response rating,soybean; [8],3
